For this series the following is noted: pH 5.5.

Experimental: The fraction of the dose precipitating in the form of free base during dissolution is dependent on experimental factors such as stirring speed, which determines mixing kinetics of the highly supersaturated microenvironment solution into the bulk of the dissolution medium.
The dissolution studies were conducted using USP apparatus 2 in acetate buffer, pH 5.5 and 37° C.
The pH of the dissolution medium remained substantially constant at ˜5.5 until the end of the test.

`CN(C)Cc1nccn1-c1ccc(NC(=O)c2cc(C(F)(F)F)nn2-c2ccc3onc(N)c3c2)c(F)c1.Cl` [Factor Xa inhibitor]: the “concentration in the dissolution medium relative to saturation solubility at this pH” value was ~10 fold.

Values taken from patent US20050059719A1 (priority 2003, published 2005).
